Patent US20230049549A1, “PEPTIDE COMPOUNDS AND METHODS OF TREATING DISEASES USING SAME” (Immunity Pharma Ltd., priority 2020, published 2023)
Where no end group is shown, it is not given here. [ ]: non-standard residue; d: D form. dimethylproline = dimethylproline (dMP); Aib = CC(C)(N)C(=O)O

Test system: BALB/c mice
Assay: Rescue from dexamethasone-induced spleen and thymus weight and cell loss in mice
Type: in vivo, mouse
Details: for Average: average of spleen weight, spleen cell number, thymus weight, thymus cell number, Normal = 100%, DEXA alone 47%; for Thymus Cell number: relative to Normal mice = 100% (DEXA alone 23%); for Thymus Cell number / Thymus Weight / Spleen Cell number / Spleen Weight: dexamethasone 100 μg IP, peptide 200 μg/mouse IV immediately and 24 hours after, sacrificed 48 hours; for Thymus Weight: relative to Normal mice = 100% (DEXA alone 44%); for Spleen Cell number: relative to Normal mice = 100% (DEXA alone 59%); for Spleen Weight: relative to Normal mice = 100% (DEXA alone 62%)
Method: Dexamethasone is a corticosteroid medication that induces apoptosis of immune cells and lymphomyeloid tissues. BALB/c mice were used to examine the ability of candidate peptides to rescue lymphocyte cells from apoptosis. Mice were injected IP with 100 μg of Dexamethasone. Dexamethasone-treated mice received immediately following and 24-hours after dexamethasone treatment IV injection of candidate peptides (200 μg peptide/mouse). Mice were sacrificed 48 hours after the first treatment. The spleen and the thymus were weighted and full cell count of both organs was performed.
Peptides used in the screen were SEQ ID NOs: 1-13. The peptide of SEQ ID NO: 42 was used as a positive control. The peptides set forth in SEQ ID NOs: 35-41 were used as negative controls.

Row | Substance | Average | Thymus Cell number | Thymus Weight | Spleen Cell number | Spleen Weight
1 | 1 (LPPL[Aib]YP) [compound 1] | 65% | 28% | 59% | 82% | 89%
2 | 13 (LP[dimethylproline]LPYP) [compound 13] | 65% | 44% | 49% | 84% | 82%
3 | 42 (LPPLPYP) [compound 42] | 59% | 34% | 47% | 78% | 79%
4 | 36 ([dL]PPH[Aib]YP) [compound 36] | 54% | 40% | 43% | 69% | 64%
5 | 12 ([dL]P[Aib]LAYP) [compound 12] | 72% | 51% | 63% | 85% | 89%
6 | 6 (LPP[dL]PYP) [compound 6] | 58% | 23% | 48% | 80% | 80%
7 | 7 (L[dimethylproline]PLPYP) [compound 7] | 67% | 29% | 72% | 82% | 84%
8 | 39 ([dL]PPL[Aib]Y) [compound 39] | 55% | 27% | 50% | 73% | 69%
9 | 10 (LPPHPYP) [compound 10] | 65% | 33% | 56% | 85% | 84%
10 | 9 (LPPSPYP) [compound 9] | 61% | 31% | 55% | 82% | 76%
11 | 40 ([dL]PPLAY) [compound 40] | 55% | 34% | 41% | 72% | 72%
12 | 2 (LPPLPY[Aib]) [compound 2] | 65% | 25% | 61% | 85% | 89%
13 | 5 ([dL]PPH[Aib]Y-NH2; N-terminus assumed; SMILES CC(C)C[C@@H](N)C(=O)N1CCC[C@H]1C(=O)N1CCC[C@H]1C(=O)N[C@@H](Cc1c[nH]cn1)C(=O)NC(C)(C)C(=O)N[C@@H](Cc1ccc(O)cc1)C(N)=O) [compound 5] | 68% | 49% | 52% | 91% | 81%
14 | 4 ([dP]PL[Aib]Y-NH2; N-terminus assumed; SMILES CC(C)C[C@H](NC(=O)[C@@H]1CCCN1C(=O)[C@H]1CCCN1)C(=O)NC(C)(C)C(=O)N[C@@H](Cc1ccc(O)cc1)C(N)=O) [compound 4] | 61% | 31% | 55% | 82% | 77%
15 | 11 ([dL]PPHPYP) [compound 11] | 68% | 49% | 52% | 91% | 81%
16 | 41 ([dL]PPLAY[Aib]) [compound 41] | 51% | 25% | 49% | 61% | 69%
17 | 37 (Ac-PPL[Aib]Y-NH2; SMILES CC(=O)N1CCC[C@H]1C(=O)N1CCC[C@H]1C(=O)N[C@@H](CC(C)C)C(=O)NC(C)(C)C(=O)N[C@@H](Cc1ccc(O)cc1)C(N)=O) [compound 37] | 55% | 24% | 48% | 77% | 69%
18 | 8 (LPPVPYP) [compound 8] | 60% | 30% | 53% | 82% | 76%
19 | 35 (LPPH[Aib]YP) [compound 35] | 52% | 39% | 42% | 65% | 62%
20 | 38 ([dL]PPL[Aib]YP) [compound 38] | 52% | 24% | 50% | 66% | 67%
